Active and inactive are the calls of the source. No cut-off for these calls is given here.
What was measured:
CHO [1] = assay: Cytoprotective activity against diphtheria toxin-induced cell death in CHO cells assessed as cell viability at 10 uM by MTT reduction assay; assay type: functional; details: Cricetulus griseus, read-out: Activity
RAW264.7 [2] = assay: Cytoprotective activity against anthrax toxin lethal factor/protective antigen-induced cell death in mouse RAW264.7 cells assessed as cell viability at 10 uM by MTT reduction assay; assay type: functional, cell-based
CHO [3] = assay: Cytoprotective activity against anthrax fusion toxin FP59-induced cell death in CHO cells assessed as cell viability by MTT reduction assay; assay type: functional, cell-based; details: Cricetulus griseus
RAW264.7 [4] = assay: Cytoprotective activity against anthrax toxin lethal factor-induced cell death in mouse RAW264.7 cells assessed as cell viability at 3 uM by MTT reduction assay; assay type: functional, cell-based
CHO [5] = assay: Cytoprotective activity against diphtheria toxin-induced cell death in CHO cells assessed as cell viability at 5 uM by MTT reduction assay; assay type: functional; details: Cricetulus griseus, read-out: Activity
RAW264.7 [6] = assay: Cytoprotective activity against anthrax lethal toxin-induced cell death in mouse RAW264.7 cells assessed as cell viability at 2 uM preincubated for 45 mins with lethal toxin measured after 1 hr by MTT reduction assay; assay type: functional, cell-based
RAW264.7 [7] = assay: Cytotoxicity against mouse RAW264.7 cells at 10 uM by MTT assay; assay type: cell-based; details: raw264.7, 10 µM
[8] = molecular target: Replicase polyprotein 1ab (Severe acute respiratory syndrome-related coronavirus, UniProt P0C6X7); assay: Inhibition of SARS Co-V 3CL protease

SMILES | viability at 10 µM (CHO [1]) [%] | Activity (RAW264.7 [2]) | Activity (CHO [3]) | viability at 5 µM (CHO [5]) [%] | also measured
Cc1ccc2oc(=O)c3cnn(CC(=O)Nc4ccccc4N4CCN(C)CC4)c3c2c1 | 75 | Active | Active | – | –
Cc1ccnc(-n2sc3ccccc3c2=O)n1 | – | inactive | – | – | –
N=C1Sc2ccccc2C2=NCCCN12 | – | inactive | – | – | –
COc1cc2c(O)c3c(c(-c4ccc5c(c4)OCO5)c2cc1OC)C(=O)OC3 [DIPHYLLIN] | – | – | Active | 100 | Activity (RAW264.7 [4]): Active; Activity (RAW264.7 [6]): Active
CN(C)CCCn1cc(C2=C(c3c[nH]c4ccccc34)C(=O)NC2=O)c2ccccc21 [GF-109203] | 60 | – | – | – | Activity (RAW264.7 [7]): Toxic
O=C(Nc1ccc([N+](=O)[O-])cc1Cl)c1cc(Cl)ccc1O [NICLOSAMIDE] | – | Active | Active | 100 | IC50 [8]: 40 µM
